Like-named read-outs stand apart in the source and are kept apart here.

From patent US12071416B2, “Prodrugs of 4-( (1R, 3S)-6-chloro-3-phenyl-2, 3-dihydro-1H-inden-1-yl)-1,2, 2-trimethylpiperazine and 4-( (1R, 3S)-6-chloro-3-(phenyl-D5)-2, 3-dihydro-1H-inden-1-yl)-2, 2-dimethyl-1 (methyl-D3) piperazine” (H. Lundbeck A/S, priority 2018, dated 2024) come the findings set out here.

The series in a line: Plasma stability assay. Type of series: in vitro ADME, human. On the procedure:
Frozen human plasma (stored at −80° C.) was thawed in a water bath followed by centrifugation at 3200×g for 5 min to remove debris. The pH value of the supernatant was then measured and adjusted to 7.4±0.1 by adding 1% phosphoric acid or 1 N sodium hydroxide.
For each test compound, 2 microL of dosing solution (50 microM for test compounds and 100 microM for positive control; propantheline bromide) were spiked into 98 microL of blank plasma to achieve a final concentration of 1 microM test compound and 2 microM positive control.
The test compounds and positive control were incubated in duplicate with human plasma (final DMSO concentration <1%) in a water bath at 37° C. at six different time points (0, 0.5, 1, 2, 4 and 6 hr). At each corresponding time point the incubations were terminated by adding appropriate volume of quenching solution to stop the reaction.
Afterwards, the plasma samples were briefly vortexed and subsequently centrifuged at 3200×g for 20 min. The supernatant was transferred into a 96-well plate and diluted with 200 microL of ultrapure water in the ratio of 1:2 prior to LC-MS/MS analysis. The peak area ratios (PAR) of analyte/internal standard was used to semi-quantitatively determine the concentration of test compounds and control compound. The percentage of test compound remaining at the individual time points relative to the 0 minute sample was reported.
In the determination of in vitro elimination constant, ke, of the parent drug and controls, the analyte/internal standard peak area ratios were converted to percentage remaining with the following equation: […]
The percentage formation of metabolite was calculated by the analyte/internal standard peak area ratios versus T0 (absolute) of metabolite drug and converted to percentage.
The half-life (T1/2) of parent drug and control compounds were calculated from a log linear plot of analyte/internal standard peak area ratios versus time (T1/2=0.693/ke).
Compounds 1a2, 1b2, 2a2, and 2b2 were incubated in human plasma as described above and half-lives of 0.5-1.5 h were determined with the formation of 15-35% of 4-((1R,3S)-6-chloro-3-phenyl-2,3-dihydro-1H-inden-1-yl)-1,2,2-trimethylpiperazine and 4-((1R,3S)-6-chloro-3-(phenyl-d5)-2,3-dihydro-1H-inden-1-yl)-2,2-dimethyl-1-(methyl-d3)piperazine, respectively.

Where [1] appears, read: human plasma, pH 7.4, 37° C., 1 microM test compound, 0-6 hr, LC-MS/MS, read-out: half-life (T1/2) in human plasma.

For the molecule `CC(C)(C)C(=O)OC[N@+]1(C)CCN([C@@H]2C[C@@H](c3ccccc3)c3ccc(Cl)cc32)CC1(C)C.[Cl-]` (single isomer, unassigned) [Compound 1a2], the half-life at 1 microM under setting [1] fell in the range of 0.5 to 1.5 h.

Molecule `CC(C)(C)C(=O)OC[N@@+]1(C)CCN([C@@H]2C[C@@H](c3ccccc3)c3ccc(Cl)cc32)CC1(C)C.[Cl-]` (single isomer, unassigned) [Compound 1b2] returned a half-life at 1 microM (human, plasma, pH 7.4) of 0.5 to 1.5 h. Take `[2H]c1c([2H])c([2H])c([C@@H]2C[C@@H](N3CC[N@+](COC(=O)C(C)(C)C)(C([2H])([2H])[2H])C(C)(C)C3)c3cc(Cl)ccc32)c([2H])c1[2H].[Cl-]` (single isomer, unassigned) [Compound 2a2]: the half-life at 1 microM under setting [1] fell in the range of 0.5 to 1.5 h. `[2H]c1c([2H])c([2H])c([C@@H]2C[C@@H](N3CC[N@@+](COC(=O)C(C)(C)C)(C([2H])([2H])[2H])C(C)(C)C3)c3cc(Cl)ccc32)c([2H])c1[2H].[Cl-]` (single isomer, unassigned) [Compound 2b2] showed a half-life at 1 microM (human, plasma, pH 7.4) of 0.5 to 1.5 h.
